Results: BindingDB's records for patent US10494376 (CTXT PTY. LTD., 2019)

Biological target: Protein arginine N-methyltransferase 5 (Homo sapiens, UniProt O14744)
Assay: Revised Biochemical Assay
Method: Compounds of the invention may be tested for in vitro activity in the following assay: A histone H4 derived peptide is used as substrate (amino acid sequence: […]N H2). Full-length PRMT5 enzyme (NCBI Reference sequence NP_006100.2) was co-expressed with His6-MEP50 in insect cells and purified via Nickel immobilized metal affinity and gel filtration chromatography (the enzyme).The 6 μL reactions are run in Greiner brand black 384-well low volume assay plates. All reactions contained assay buffer (phosphate buffered saline, 0.01% (v/v) Tween-20, 0.01% (w/v) albumin from chicken egg white, 1 mM Dithiothreitol, 1 μM peptide substrate, 1 μM S-Adenosyl methionine, and 15 ng/reaction enzyme, with the enzyme being omitted from negative control reactions. Compounds were added in a volume of 100 nL from dilution series prepared in DMSO, positive and negative control reactions receiving the same volume DMSO without compound. The plates were sealed with adhesive seals and incubated for 4 hours at 37 degree Celsius. Reaction progress was measured using the Transcreener EPIGEN methyltransferase assay (BellBrook Labs, Madison, Wis.) as recommended by the manufacturer. To each reaction 2 μL detection mix were added, containing coupling enzymes, fluorescence polarisation tracer, and AMP antibody. […]

Sequence of Protein arginine N-methyltransferase 5 (O14744 whole entry): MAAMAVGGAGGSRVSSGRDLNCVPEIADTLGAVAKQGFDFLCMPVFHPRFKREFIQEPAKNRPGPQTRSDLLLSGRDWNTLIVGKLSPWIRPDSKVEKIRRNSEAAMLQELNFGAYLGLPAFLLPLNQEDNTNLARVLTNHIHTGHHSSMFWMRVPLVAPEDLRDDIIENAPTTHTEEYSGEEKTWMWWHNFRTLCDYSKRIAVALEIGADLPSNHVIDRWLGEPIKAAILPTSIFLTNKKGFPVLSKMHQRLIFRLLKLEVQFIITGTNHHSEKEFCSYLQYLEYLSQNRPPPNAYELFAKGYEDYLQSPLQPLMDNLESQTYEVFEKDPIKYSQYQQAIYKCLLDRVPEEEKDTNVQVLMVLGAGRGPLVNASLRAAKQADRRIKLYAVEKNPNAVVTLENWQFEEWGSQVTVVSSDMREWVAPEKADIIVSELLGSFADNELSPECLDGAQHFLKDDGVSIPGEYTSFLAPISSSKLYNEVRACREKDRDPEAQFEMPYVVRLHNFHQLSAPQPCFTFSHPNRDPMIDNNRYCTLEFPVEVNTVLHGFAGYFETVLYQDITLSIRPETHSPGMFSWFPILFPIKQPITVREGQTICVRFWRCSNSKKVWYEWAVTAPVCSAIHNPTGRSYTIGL

- IC50: 11.7 µM
SMILES: COC(=O)N1CCC(N(C)C(=O)c2ccc(C(=O)NC[C@@H](O)[C@@H]3Cc4ccccc4CN3)cc2)CC1 [US10494376, Example 20]
